Legend:
KAT2B [1] = molecular target: T1, KAT2B (Homo sapiens, UniProt Q92831); test: KAT2B degradation, Western Blot, MOLM-13 cells; format: cell-based; design: degrader, Western blot
Experimental: MOLM-13 cells were maintained at 37° C. in 5% CO2 and 90% humidity in RPMI 1640 supplemented with 20% fetal bovine serum (FBS) and 1× penicillin/streptomycin. Cells were plated in full media at 1-2 million cells/2 mL in a 6-well tissue culture treated plate with or without compounds for 24 h at 37° C. in 5% CO2.
(§1) MOLM-13 cells or NCI-H1048 cells were washed with PBS, then lysed with RIPA buffer containing 1×protease and phosphatase inhibitors (SantaCruz Biotechnologies Cat #sc-24948A). Protein was isolated by centrifugation at 12,000×g for 10 minutes at 4° C. and supernatant was collected. Protein was quantified via Bradford assay. Samples were diluted to 4 μg lysate in 16 μL RIPA buffer and then 4 μL of Jess Sample Buffer. Samples were heated at 95° C. for 5 minutes. Samples were loaded onto 12-230 kDa Jess™ Separation Module, 8×25 capillary cartridges (SM-W004, Biotechne). Antibodies loaded were: Primary antibody for KAT2A (GCN5L2 (C26A10) Rabbit mAb (3305, CST)) and for KAT2B (PCAF (C14G9)) Rabbit mAb (3378, CST) at 1:1000 and Anti-Rabbit Detection Module for Jess™ (Cat No #DM-001, Biotechne). Signal was detected by chemiluminescence.
DC50 values were determined from percent reduction of protein as compared to the DMSO control.

KAT2A [2] = molecular target: T2, KAT2A (Homo sapiens, UniProt Q92830); test: Western blot of KAT2A level in NCI-H1048 cells, 24 h; format: cell-based; design: degrader, Western blot; conditions: various concentrations, FIG. 1 (B)
T2 sequence (Q92830 whole entry): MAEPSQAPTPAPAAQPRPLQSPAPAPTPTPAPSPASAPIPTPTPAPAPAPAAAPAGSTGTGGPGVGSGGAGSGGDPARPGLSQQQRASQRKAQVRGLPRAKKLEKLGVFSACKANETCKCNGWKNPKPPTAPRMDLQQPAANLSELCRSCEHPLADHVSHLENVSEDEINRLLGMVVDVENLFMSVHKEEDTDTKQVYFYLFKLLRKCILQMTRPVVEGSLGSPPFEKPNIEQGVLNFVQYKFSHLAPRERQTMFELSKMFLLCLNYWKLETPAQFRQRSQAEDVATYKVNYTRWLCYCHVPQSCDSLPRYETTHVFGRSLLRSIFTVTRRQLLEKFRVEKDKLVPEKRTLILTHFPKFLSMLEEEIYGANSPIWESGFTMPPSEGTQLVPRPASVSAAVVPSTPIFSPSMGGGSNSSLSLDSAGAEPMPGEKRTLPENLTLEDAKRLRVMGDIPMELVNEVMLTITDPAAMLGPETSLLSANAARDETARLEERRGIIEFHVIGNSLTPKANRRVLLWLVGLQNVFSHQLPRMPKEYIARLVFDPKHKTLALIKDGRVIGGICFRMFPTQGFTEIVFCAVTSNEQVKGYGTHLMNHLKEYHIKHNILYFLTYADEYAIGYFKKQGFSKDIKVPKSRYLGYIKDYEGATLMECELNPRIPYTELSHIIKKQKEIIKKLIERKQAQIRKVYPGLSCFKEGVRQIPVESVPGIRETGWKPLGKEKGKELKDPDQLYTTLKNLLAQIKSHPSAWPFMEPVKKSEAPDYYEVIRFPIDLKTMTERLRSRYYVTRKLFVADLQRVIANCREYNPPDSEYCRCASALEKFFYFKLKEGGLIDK
Experimental: (§2) FIG. 1. Provided compounds can provide various activities including inhibiting tumor growth in vivo. (A): Provided compounds can inhibit tumor growth in vivo. Nude Balb/c mice were inoculated with NCI-H1048 cells in Matrigel. Tumors were allowed to grow up to about 200 mm^3 and mice were then randomized into two groups. Mice were dosed intraperitoneally (i.p.) once per week with vehicle or 30 mg/kg compound 22. Tumor size was measured every three to four days and mice were sacrificed once vehicle tumors reached 2000 mm^3. Error bar is SEM. Dosing started at day 17 post tumor inoculation. (B): Provided technologies can reduce KAT2A and KAT2B levels and histone acetylation levels. […] Vehicle is DMSO. […] Cell count data relative to DMSO control after 8 days of treatment with compound 22 are presented as examples to confirm inhibition. GI50=6 nM. (D): Provided technologies can inhibit tumor growth in vivo. Nude balb/c mice inoculated with H1048 tumors were dosed intraperitoneally once per week (qw i.p.) with vehicle (HbCD) or compound 22. Average tumor volumes+/−SEM from 6 mice are represented. […] See also (A). […] Certain body weights relative to starting weight are presented as examples to confirm tolerability and safety. (F): Provided technologies can reduce KAT2A and KAT2B levels and histone acetylation levels in tumor in vivo. […]

histone acetylation [3] = test: Western blot of histone acetylation in acute myeloid leukemia MOLM-13 cells, 48 h; format: cell-based; conditions: FIG. 2 (A)
Experimental: (§3) FIG. 2. Provided compounds can provide various activities. (A): Provided technologies can reduce KAT2A and KAT2B levels and histone acetylation levels. […] Cell count data after 8 days of treatment with compound 22 relative to DMSO control are presented as examples to confirm inhibition. […] (C): Provided technologies can modulate cell states and induce differentiation. […] EC50=0.3 nM.

KAT2B [4] = molecular target: T1, KAT2B; test: KAT2B reduction in LASCPC-01 cells; format: cell-based; design: degrader, Western blot
Experimental: as §1
In some embodiments, assessment was performed in LASCPC-01 cells, and reduction of KAT2A and KAT2B levels, including in some cases selectivity for one over the other, was confirmed. In some embodiments, DC50 and/or DC90 were assessed. In some embodiments, DC50 for various compounds was about or no more than about 1 nM. In some embodiments, DC90 for various compounds was about or no more than about 1 nM. In some embodiments, selectivity for the same polypeptide by a compound was observed across multiple types of cells (e.g., when assessed using DC50 and/or DC90). In some embodiments, certain compounds can provide improved properties and/or activities (e.g., potency). Data from certain assessments for certain compounds are presented below as examples (NT: not tested). It has been confirmed that various compounds described herein, including multiple compounds in Table 1, can be deemed to provide further improved properties and/or activities compared to the compound(s) in the table below for certain contexts, aspects, and/or uses.

epithelial GSEA = test: Epithelial GSEA in LASCPC-01 cells; format: cell-based; conditions: LASCPC-01 cells as compared to DMSO; FIG. 3 (C)
Experimental: (§4) FIG. 3. Provided compounds can provide various activities. (A): Provided technologies can reduce KAT2A and KAT2B levels and histone acetylation levels. […] Cell viability (Cell Titer Glo) data relative to DMSO control after 7 days of treatment with compound 22 are presented as examples to confirm inhibition. GI50=5 nM. (C): Provided technologies can modulate cell states and induce differentiation. […] (D): Provided technologies can reduce KAT2A and KAT2B levels and histone acetylation levels including in neuroendocrine prostate cancer primary patient organoid. […] Concentrations are nM. […] Cell viability data relative to DMSO control after 21 days of treatment with compound 22 are presented as examples to confirm inhibition. GI50=3 nM. (F): Provided technologies can modulate cell states and induce differentiation.

histone acetylation [5] = test: Western blot of histone acetylation in NCI-H1048 tumors, 168 hours post last dose; format: in vivo; conditions: FIG. 1 (F)
Experimental: as §2

KAT2A [6] = molecular target: T2, KAT2A; test: Western blot of KAT2A level in neuroendocrine prostate cancer LASCPC-01 cells, 24 hours; format: cell-based; design: degrader, Western blot; conditions: FIG. 3 (A)
Experimental: as §4

histone acetylation [7] = test: Western blot of histone acetylation in NCI-H1048 cells, 24 h; format: cell-based; conditions: various concentrations, FIG. 1 (B)
Experimental: as §2

KAT2B [8] = molecular target: T1, KAT2B; test: Western blot of KAT2B level in neuroendocrine prostate cancer LASCPC-01 cells, 24 hours; format: cell-based; design: degrader, Western blot; conditions: FIG. 3 (A)
Experimental: as §4

MOLM-13 cells = test: Cell growth inhibition (cell count, 8 days), MOLM-13 cells; format: cell-based; conditions: Homo sapiens, 192 h, cell count after 8 days relative to DMSO control, FIG. 2 (B)
Experimental: as §3

T1 sequence (Q92831 whole entry): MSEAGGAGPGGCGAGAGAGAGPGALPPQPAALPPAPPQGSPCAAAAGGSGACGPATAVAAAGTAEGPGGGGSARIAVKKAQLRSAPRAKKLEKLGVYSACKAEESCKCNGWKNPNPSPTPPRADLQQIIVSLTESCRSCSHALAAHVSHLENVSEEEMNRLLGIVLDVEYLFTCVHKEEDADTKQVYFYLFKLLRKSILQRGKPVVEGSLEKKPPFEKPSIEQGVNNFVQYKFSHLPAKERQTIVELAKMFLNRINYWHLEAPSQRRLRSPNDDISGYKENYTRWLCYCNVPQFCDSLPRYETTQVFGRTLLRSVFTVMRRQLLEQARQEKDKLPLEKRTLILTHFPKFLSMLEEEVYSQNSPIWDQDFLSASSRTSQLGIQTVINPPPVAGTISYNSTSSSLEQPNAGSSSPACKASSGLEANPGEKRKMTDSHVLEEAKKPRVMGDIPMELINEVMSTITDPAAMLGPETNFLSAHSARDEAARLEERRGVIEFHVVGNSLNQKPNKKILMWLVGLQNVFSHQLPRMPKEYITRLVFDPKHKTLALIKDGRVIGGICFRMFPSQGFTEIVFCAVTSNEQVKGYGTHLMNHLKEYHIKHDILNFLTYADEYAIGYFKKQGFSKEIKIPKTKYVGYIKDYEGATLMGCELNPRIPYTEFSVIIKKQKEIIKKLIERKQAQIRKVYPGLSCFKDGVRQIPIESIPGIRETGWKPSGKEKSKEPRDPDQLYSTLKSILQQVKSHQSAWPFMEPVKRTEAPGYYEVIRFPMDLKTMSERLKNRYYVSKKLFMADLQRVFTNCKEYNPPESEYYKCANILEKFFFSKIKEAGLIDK

SMILES: CN1C[C@H](Nc2cnn(C)c(=O)c2Br)C[C@H](c2ccc(C(=O)N3CCC(CN4CCN(c5ccc6c(c5)CN(C5CCC(=O)NC5=O)C6=O)CC4)CC3)cc2)C1 (stereo partly drawn) [Compound 22, 3-(5-(4-((1-(4-((3R,5R)-5-((5-bromo-1-methyl-6-oxo-1,6-dihydropyridazin-4-yl)amino)-1-methylpiperidin-3-yl)benzoyl)piperidin-4-yl)methyl)piperazin-1-yl)-1-oxoisoindolin-2-yl)piperidine-2,6-dione]
- EC90 (KAT2B [1]; 24 h, MOLM-13, KAT2B, read-out: DC90 (the source's name)): 3.6 nM
- DC50 (KAT2B [1]; MOLM-13, KAT2B): 0.43 nM
- KAT2B levels (KAT2B [1]; MOLM-13 cells, FIG. 2): potently reduce KAT2A and KAT2B levels
- reduction of KAT2A level (KAT2A [2]): confirm such reduction
- reduction of histone acetylation level (histone acetylation [3]): confirm such reduction
- DC50 (KAT2B [4]; LASCPC-01, KAT2B): 0.16 nM
- EC90 (KAT2B [4]; LASCPC-01, KAT2B, read-out: DC90 (the source's name)): 0.42 nM
- KAT2B levels (KAT2B [4]; LASCPC-01 cells, FIG. 3): potently reduce KAT2A and KAT2B levels
- epithelial GSEA (epithelial GSEA): significant upregulation
- reduction of histone acetylation in tumor (histone acetylation [5]): significant reduction
- reduction of KAT2A level (KAT2A [6]): confirm such reduction
- reduction of histone acetylation level (histone acetylation [7]): confirm such reduction
- reduction of KAT2B level (KAT2B [8]): confirm such reduction
- GI50 (MOLM-13 cells): 1.2 nM

Source: patent publication US20260306640A1, “TECHNOLOGIES TARGETING CELL STATES” (Auron Therapeutics, Inc., priority 2023, published 2026)
